Laboratory results as given in patent publication US20170296460A1, “METHOD OF IMPROVING THE APPEARANCE OF PERIORBITAL DYSCHROMIA” (The Procter & Gamble Company, priority 2016, published 2017).

Tested on: B16-F1 mouse melanoma cell line
Test: B16 melanin synthesis inhibition assay
Format: cell-based
Settings: B16-F1 cells, OD 410 nm
Method: In this example, a commercially available B16-F1 mouse melanoma cell line from American Tissue Culture Collection, Virginia, USA was employed in a conventional melanin synthesis inhibition assay. The cell culture medium used in the assay is 500 mL of Dulbecco's Modified Eagle's Medium (DMEM), 50 mL Fetal Bovine Serum (FBS), and 5 mL of penicillin-streptomycin liquid. B16-F1 cells that are cultured in this medium and grown to greater than 90% confluency will synthesize melanin. While not intending to be bound by any theory, it is hypothesized that the melanin synthesis is stimulated by the culture medium and/or stress induced by growth to a high confluency. […] Equipment used in the assay include a CO2 incubator, such as a Forma Series Model 3110 by Therma Scientific, Massachusetts, USA; a hemocytometer, such as a Bright Line model by Hauser Scientific, Pennsylvania, USA; and a UV-Visible Spectrum Plate Reader, such as a SpectraMax250 from Molecular Devices, California, USA. […] Day 3: The cells from the T-150 flask are trypsinized, and the concentration of cells is determined using the hemacytometer. […] Read the 96 well plate using the UV-Vis Plate Reader at 410 nm to optically measure the amount of melanin produced between wells that are treated with the pumpkin seed extract and control wells that are not. […] The concentration of test agent needed to provide the IC 50 is recorded.

Concentration Needed for IC 50: 0.008 v/v
SMILES: Oc1ccc(OC2CCCCO2)cc1 (stereo not shown) [Deoxyarbutin]
